The test system of experiment [1] is C20:4 LPA hydrolytic activity of mouse brain proteomes. The experiment is classed as biochemical. The conditions noted are these: inhibitor 1 μM, 30 min, 37°C.
The target in experiment [2] is T1, HSL (Mus musculus, UniProt P54310).
T1 sequence (P54310 1-759): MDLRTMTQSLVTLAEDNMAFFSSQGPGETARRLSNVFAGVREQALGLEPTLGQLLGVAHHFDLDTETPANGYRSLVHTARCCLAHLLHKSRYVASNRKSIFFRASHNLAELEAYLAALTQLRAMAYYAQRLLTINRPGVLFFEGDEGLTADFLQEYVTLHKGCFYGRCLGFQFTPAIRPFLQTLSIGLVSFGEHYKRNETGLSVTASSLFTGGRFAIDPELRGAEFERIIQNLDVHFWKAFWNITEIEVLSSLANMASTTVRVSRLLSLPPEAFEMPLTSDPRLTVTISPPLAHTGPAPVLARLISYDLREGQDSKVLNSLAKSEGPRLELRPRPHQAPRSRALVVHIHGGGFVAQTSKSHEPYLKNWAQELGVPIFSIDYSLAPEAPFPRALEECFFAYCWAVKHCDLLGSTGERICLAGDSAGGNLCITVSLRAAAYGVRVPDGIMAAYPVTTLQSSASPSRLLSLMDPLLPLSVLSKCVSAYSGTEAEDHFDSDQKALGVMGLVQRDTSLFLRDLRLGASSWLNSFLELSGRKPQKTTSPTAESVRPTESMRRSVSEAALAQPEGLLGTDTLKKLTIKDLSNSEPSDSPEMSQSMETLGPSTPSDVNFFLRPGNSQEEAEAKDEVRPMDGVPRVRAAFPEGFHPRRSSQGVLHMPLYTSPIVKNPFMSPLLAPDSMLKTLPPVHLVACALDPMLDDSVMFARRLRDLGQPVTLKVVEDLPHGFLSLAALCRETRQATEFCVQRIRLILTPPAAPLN
As to the kind of experiment: Gel-based competitive ABPP. The experiment is classed as biochemical.

The target of experiment [3] is T2, ABHD6 (Mus musculus, UniProt Q8R2Y0).
T2 sequence (Q8R2Y0 1-336): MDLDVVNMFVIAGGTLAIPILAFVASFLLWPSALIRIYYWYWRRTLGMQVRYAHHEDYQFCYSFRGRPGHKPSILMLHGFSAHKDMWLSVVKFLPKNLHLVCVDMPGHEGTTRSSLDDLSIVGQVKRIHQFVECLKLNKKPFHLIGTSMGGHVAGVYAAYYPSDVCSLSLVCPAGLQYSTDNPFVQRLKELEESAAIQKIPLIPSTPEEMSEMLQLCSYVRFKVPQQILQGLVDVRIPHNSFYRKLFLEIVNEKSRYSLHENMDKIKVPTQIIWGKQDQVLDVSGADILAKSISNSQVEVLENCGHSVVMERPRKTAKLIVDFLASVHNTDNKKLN
Nature of the experiment: Gel-based competitive ABPP. Format: biochemical.

In experiment [4] the target is T3, CES3 (Mus musculus, UniProt Q8VCT4).
T3 sequence (Q8VCT4 19-565): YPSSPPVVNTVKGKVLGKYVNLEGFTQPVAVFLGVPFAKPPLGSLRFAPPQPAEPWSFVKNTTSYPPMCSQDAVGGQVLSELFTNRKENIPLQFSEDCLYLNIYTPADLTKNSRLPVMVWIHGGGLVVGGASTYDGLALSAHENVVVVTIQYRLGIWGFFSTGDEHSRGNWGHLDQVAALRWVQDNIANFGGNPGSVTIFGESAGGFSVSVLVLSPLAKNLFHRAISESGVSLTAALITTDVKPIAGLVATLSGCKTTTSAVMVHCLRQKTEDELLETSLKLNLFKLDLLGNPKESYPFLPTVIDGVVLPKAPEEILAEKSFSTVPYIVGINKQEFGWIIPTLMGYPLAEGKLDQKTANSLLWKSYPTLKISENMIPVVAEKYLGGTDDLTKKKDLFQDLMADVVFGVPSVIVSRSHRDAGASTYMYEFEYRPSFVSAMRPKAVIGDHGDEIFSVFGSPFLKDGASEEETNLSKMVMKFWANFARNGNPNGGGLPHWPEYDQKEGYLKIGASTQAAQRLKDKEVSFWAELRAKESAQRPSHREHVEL
Nature of the experiment: Gel-based competitive ABPP. Format: biochemical.

The target of experiment [5] is CES2. Nature of the experiment: Gel-based competitive ABPP. The experiment is classed as biochemical.
Experiment [6] addresses T4, KIAA1363 (Mus musculus, UniProt Q8BLF1).
T4 sequence (Q8BLF1 1-408): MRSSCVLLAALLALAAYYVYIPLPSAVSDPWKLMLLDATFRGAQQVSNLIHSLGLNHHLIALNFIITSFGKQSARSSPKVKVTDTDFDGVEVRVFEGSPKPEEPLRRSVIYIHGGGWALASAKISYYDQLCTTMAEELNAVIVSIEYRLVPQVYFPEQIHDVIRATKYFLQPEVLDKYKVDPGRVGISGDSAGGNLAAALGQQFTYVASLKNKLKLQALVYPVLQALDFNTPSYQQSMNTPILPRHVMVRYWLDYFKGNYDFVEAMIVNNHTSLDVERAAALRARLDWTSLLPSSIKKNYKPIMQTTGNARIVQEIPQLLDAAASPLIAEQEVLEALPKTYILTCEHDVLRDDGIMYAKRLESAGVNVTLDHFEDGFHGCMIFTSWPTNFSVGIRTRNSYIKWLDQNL
As to the kind of experiment: Gel-based competitive ABPP. The experiment is classed as biochemical.

For experiment [7], the target named is T5, APEH (Mus musculus, UniProt Q8R146).
T5 sequence (Q8R146 1-732): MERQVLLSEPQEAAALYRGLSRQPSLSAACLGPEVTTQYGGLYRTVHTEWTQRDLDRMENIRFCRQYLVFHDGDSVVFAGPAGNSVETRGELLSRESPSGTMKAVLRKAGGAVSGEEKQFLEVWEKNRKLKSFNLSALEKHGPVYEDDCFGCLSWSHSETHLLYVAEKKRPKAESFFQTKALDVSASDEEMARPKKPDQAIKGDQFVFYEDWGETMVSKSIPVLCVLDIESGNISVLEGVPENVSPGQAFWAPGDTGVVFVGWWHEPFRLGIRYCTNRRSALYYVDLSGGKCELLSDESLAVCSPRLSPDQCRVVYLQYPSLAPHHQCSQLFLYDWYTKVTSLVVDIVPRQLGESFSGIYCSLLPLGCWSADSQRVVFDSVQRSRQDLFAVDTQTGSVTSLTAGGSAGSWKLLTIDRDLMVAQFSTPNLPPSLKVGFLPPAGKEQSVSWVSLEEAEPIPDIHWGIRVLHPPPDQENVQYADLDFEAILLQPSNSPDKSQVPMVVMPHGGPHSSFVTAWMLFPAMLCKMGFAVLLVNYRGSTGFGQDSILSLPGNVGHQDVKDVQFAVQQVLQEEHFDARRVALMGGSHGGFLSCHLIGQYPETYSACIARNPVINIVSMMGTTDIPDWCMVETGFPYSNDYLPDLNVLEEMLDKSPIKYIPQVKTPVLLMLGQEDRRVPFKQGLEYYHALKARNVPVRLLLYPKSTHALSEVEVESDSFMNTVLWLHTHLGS
As to the kind of experiment: Gel-based competitive ABPP. The experiment is classed as biochemical. The settings on record: mouse brain proteome.

Experiment [8] has as its target T6, CES1 (Mus musculus, UniProt Q8VCC2).
T6 sequence (Q8VCC2 19-565): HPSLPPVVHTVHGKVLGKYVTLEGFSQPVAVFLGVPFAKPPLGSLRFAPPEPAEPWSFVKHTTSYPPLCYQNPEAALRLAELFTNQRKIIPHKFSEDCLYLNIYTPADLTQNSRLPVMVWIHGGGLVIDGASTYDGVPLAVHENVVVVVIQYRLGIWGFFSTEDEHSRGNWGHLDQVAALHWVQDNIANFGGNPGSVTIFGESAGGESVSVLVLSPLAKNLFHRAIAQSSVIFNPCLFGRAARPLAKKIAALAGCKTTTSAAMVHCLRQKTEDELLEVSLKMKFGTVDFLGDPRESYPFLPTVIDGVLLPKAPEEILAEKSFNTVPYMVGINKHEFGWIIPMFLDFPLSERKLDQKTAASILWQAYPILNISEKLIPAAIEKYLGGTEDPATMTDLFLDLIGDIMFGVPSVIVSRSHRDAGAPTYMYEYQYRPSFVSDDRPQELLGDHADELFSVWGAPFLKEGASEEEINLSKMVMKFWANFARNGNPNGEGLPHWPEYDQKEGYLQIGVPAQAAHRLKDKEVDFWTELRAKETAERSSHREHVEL
Nature of the experiment: Gel-based competitive ABPP. Format: biochemical.

The target of experiment [9] is T7, ABHD3 (Mus musculus, UniProt Q91ZH7).
T7 sequence (Q91ZH7 1-411): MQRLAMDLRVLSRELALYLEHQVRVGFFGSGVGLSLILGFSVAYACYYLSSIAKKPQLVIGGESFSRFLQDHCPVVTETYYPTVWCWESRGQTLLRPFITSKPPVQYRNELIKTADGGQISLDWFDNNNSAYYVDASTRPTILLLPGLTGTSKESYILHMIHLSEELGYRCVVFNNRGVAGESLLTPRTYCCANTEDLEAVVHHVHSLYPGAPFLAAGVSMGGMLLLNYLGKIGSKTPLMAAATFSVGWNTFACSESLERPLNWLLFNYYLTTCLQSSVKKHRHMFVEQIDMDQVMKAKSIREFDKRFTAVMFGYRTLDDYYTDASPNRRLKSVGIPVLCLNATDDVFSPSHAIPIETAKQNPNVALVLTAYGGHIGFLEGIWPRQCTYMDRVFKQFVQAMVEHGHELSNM
As to the kind of experiment: Gel-based competitive ABPP. Format: biochemical.

For experiment [10], the system named is serine hydrolases. Nature of the experiment: Competitive ABPP-MudPIT of brain and peripheral tissues. Format: in vivo, mouse.

In the case of `O=C(Oc1ccc([N+](=O)[O-])cc1)N1CCC(C(O)(c2ccc3c(c2)OCO3)c2ccc3c(c2)OCO3)CC1` [JZL184], the “C20:4 LPA hydrolytic activity (C20:4 FFA release)” value in experiment [1] is “inhibits”.
For the compound `CCOP(=O)(OCC)Oc1nc(Cl)c(Cl)cc1Cl` [CPO, chlorpyrifos-oxon], the “IC50 compared to that of ACHE” value is listed as “equivalent or lower” in experiment [2]; “equivalent or lower” in experiment [3]; “comparable” in [4]; “equivalent or lower” in [5]; “comparable” in experiment [6]; “equivalent or lower” in experiment [7]. In addition, the results for the “IC50 compared to that of ACHE” value in experiment [8] and in experiment [9] were “equivalent or lower” and “comparable”, respectively.
With `CCOP(=S)(OCC)Oc1nc(Cl)c(Cl)cc1Cl` [CPF, chlorpyrifos], the “additional serine hydrolases not found in the brain (AADAC, CES1, CES1F, CES2, CES2B, CES2G, CES3, CES5, CES6, ES22, BChE) in peripheral tissues” value in experiment [10] (CPF-treated mice, peripheral tissues) was “blocked”. Also, the “total number of metabolic serine hydrolases inhibited in vivo” value in [10] (mice, brain and peripheral tissues, CPF 50 mg/kg ip, 4 h) was “twenty-one”.
As to `O=C(Oc1ccc([N+](=O)[O-])cc1)N1CCN(Cc2cccc(Oc3ccccc3)c2)CC1` [JZL195], in [1], the “C20:4 LPA hydrolytic activity (C20:4 FFA release)” value is given as “inhibits”.

For the origin of these results see paper PMC4042408 (ACS chemical biology, 2013).
